Test results published in patent publication US11235976B2, “Nanocarbon-iron composite system as well as composition, preparation method and use thereof” (Chongqing Lummy Pharmaceutical Co., LTD, priority 2017, dated 2022).

Legend:
[1] = test system: SMMC7721 liver cancer cells; assay: Cell experiment, cell survival rate; assay type: cell-based; details: SMMC-7721, 48 h
Method: (§1) Cells growing in a log phase are collected, the concentration of the cell suspension is adjusted, 100 μL of cell suspension is added to each well and the cells are plated (edge wells are filled with sterile PBS) at a density of 1×10^3-10^4 cells/well. The cells are incubated for 24 hours at 37° C. under the condition of 5% CO2, a nanocarbon-iron solution having a concentration gradient (nanocarbon content: 125, 62.5, 15.63 and 3.91 μg/mL; and ferric ion content: 13.65, 6.83, 1.71 and 0.43 μg/mL) is added, and three sub-wells are set. Then the cells are incubated for 48 hours at 37° C. under the condition of 5% CO2. 10 μL of CCK8 solution is added to each well and then the cells are continuously incubated for 2 hours. The absorbance of each well is measured at OD=450 nm with the microplate reader. In addition, a negative control group, nanocarbon control groups having the same concentration and iron preparation control groups having the same concentration are set.
as §1, with “and 1” for “100”, “of a 6-well plate” for “and the cells are plated (edge wells are filled with sterile PBS)”, “3×10^4” for “1×10^3-10^4”, “1.71,” for “1.71 and”, “The” for “10 μL of CCK8 solution is added to each well and then the”, “trypsinized and counted.” for “continuously incubated for 2 hours. The absorbance of each well is measured at OD=450 nm with the microplate reader.”

[2] = test system: Hela cervical cancer cells; assay: Cell experiment, cell survival rate; assay type: cell-based; details: 48 h
Method: as §1
as §1, with “and 1” for “100”, “of a 6-well plate” for “and the cells are plated (edge wells are filled with sterile PBS)”, “3×10^4” for “1×10^3-10^4”, “1.71,” for “1.71 and”, “The” for “10 μL of CCK8 solution is added to each well and then the”, “trypsinized and counted.” for “continuously incubated for 2 hours. The absorbance of each well is measured at OD=450 nm with the microplate reader.”

[3] = test system: MDA-MB-231 breast cancer cells; assay: Cell experiment, cell survival rate; assay type: cell-based; details: 48 h
Method: as §1
as §1, with “and 1” for “100”, “of a 6-well plate” for “and the cells are plated (edge wells are filled with sterile PBS)”, “3×10^4” for “1×10^3-10^4”, “1.71,” for “1.71 and”, “The” for “10 μL of CCK8 solution is added to each well and then the”, “trypsinized and counted.” for “continuously incubated for 2 hours. The absorbance of each well is measured at OD=450 nm with the microplate reader.”

[4] = test system: A549 lung cancer cells; assay: Cell experiment, cell survival rate; assay type: cell-based; details: 48 h
Method: as §1
as §1, with “and 1” for “100”, “of a 6-well plate” for “and the cells are plated (edge wells are filled with sterile PBS)”, “3×10^4” for “1×10^3-10^4”, “1.71,” for “1.71 and”, “The” for “10 μL of CCK8 solution is added to each well and then the”, “trypsinized and counted.” for “continuously incubated for 2 hours. The absorbance of each well is measured at OD=450 nm with the microplate reader.”

[5] = test system: subcutaneous transplantation tumors of 9 types of cancer cells; assay: Tumor growth inhibition experiments, subcutaneous transplantation tumors; assay type: in vivo, mice; details: FIGS. 4-39
Method: Cells growing in a log phase are collected, the concentration of the cell suspension is adjusted to 3×10^7 cells/mL, and the cell suspension is inoculated subcutaneously into the right upper extremities of nude mice at the inoculation dosage of 0.1 mL (about 3×10^6 cells) per mouse. When the average tumor volume of the inoculated mice reaches 100 mm^3, the tumor-bearing mice are randomly divided into the following groups (8 nude mice per group): a negative control group (0.9% sodium chloride injection), a nanocarbon control group, an iron preparation control group, a nanocarbon-iron suspension experimental group, and a cis-platinum control group (intraperitoneal injection at the dosage of 5 mg/kg). The above various drugs are injected into the tumors. The tumor volume changes are recorded, and the formula for calculating the volume is Volume=(length×the square of width)/2.
Milky white and thick ascites is extracted from the H22 tumor-bearing mice, the concentration of the cell suspension is adjusted to be 3×10^7 cells/mL, 0.1 mL of cell suspension (about 3×10^6 cells) is inoculated subcutaneously into the right upper extremity of each of Kunming mice. When the average tumor volume of the inoculated mice reaches 100 mm^3, the tumor-bearing mice are randomly divided into the following groups (8 mice per group): a negative control group (0.9% sodium chloride injection), a nanocarbon control group, an iron preparation control group, a nanocarbon-iron suspension experimental group, and a cis-platinum control group (intraperitoneal injection at the dosage of 5 mg/kg). The above various drugs are injected into the tumors. The tumor volume changes are recorded, and the formula for calculating the volume is Volume=(length×the square of width)/2.

[6] = test system: A549 metastatic lymph nodes; assay: Lymph node metastasis inhibition experiment; assay type: in vivo, nude mouse; details: popliteal lymph nodes
Method: (§2) Cells growing in a log phase are collected, the concentration of the cell suspension is adjusted to 3×10^7 cells/mL, the cell suspension is inoculated subcutaneously into the left hind foot pads of each nude mouse at the inoculation volume of 0.05 mL (about 1.5×10^6 cells) and thus a lymph node metastasis mouse model is obtained. The mice are treated when the diameter of the tumor reaches 6-8 mm and there is no ulcer and necrosis. The mice are randomly divided into four groups (10 mice per group): a negative control group (0.9% sodium chloride injection), a nanocarbon control group, an iron preparation control group and a nanocarbon-iron suspension experimental group. 10 days after inoculation, the mice are killed, and popliteal lymph nodes are collected, weighed and fixed for pathological examination.

[7] = test system: TPC-1 metastatic lymph nodes; assay: Lymph node metastasis inhibition experiment; assay type: in vivo, nude mouse; details: popliteal lymph nodes
Method: as §2

[8] = test system: SMMC-7721 metastatic lymph nodes; assay: Lymph node metastasis inhibition experiment; assay type: in vivo, nude mouse; details: popliteal lymph nodes
Method: as §2

[9] = test system: Hela metastatic lymph nodes; assay: Lymph node metastasis inhibition experiment; assay type: in vivo, nude mouse; details: popliteal lymph nodes
Method: as §2

[10] = test system: MDA-MB-231 metastatic lymph nodes; assay: Lymph node metastasis inhibition experiment; assay type: in vivo, nude mouse; details: popliteal lymph nodes
Method: as §2

[11] = test system: SGC-7901 metastatic lymph nodes; assay: Lymph node metastasis inhibition experiment; assay type: in vivo, nude mouse; details: popliteal lymph nodes
Method: as §2

[12] = test system: HCT116 metastatic lymph nodes; assay: Lymph node metastasis inhibition experiment; assay type: in vivo, nude mouse; details: popliteal lymph nodes
Method: as §2

[13] = test system: SKOV3 metastatic lymph nodes; assay: Lymph node metastasis inhibition experiment; assay type: in vivo, nude mouse; details: popliteal lymph nodes
Method: as §2

[14] = test system: lymph node metastasis of 9 types of tumor cells; assay: Lymph node metastasis inhibition experiment, summary; assay type: in vivo, mice
Method: as §2
Milky white and thick ascites is extracted from the H22 tumor-bearing mice, the concentration is adjusted to be 3×10^7 cells/mL, 0.05 mL of cell suspension (about 1.5×10^6 cells) is inoculated subcutaneously into the left hind foot pads of each Kunming mouse, and thus a lymph node metastasis mouse model is obtained. The mice are treated when the diameter of the tumor reaches 6-8 mm and there is no ulcer and necrosis. The mice are randomly divided into four groups (10 mice per group): a negative control group (0.9% sodium chloride injection), a nanocarbon control group, an iron preparation control group and a nanocarbon-iron suspension experimental group. 10 days after inoculation, the mice are killed, and popliteal lymph nodes are collected, weighed and fixed for pathological examination.

[15] = iron preparation alone 6.83 μg/mL
[16] = iron preparation alone 13.65 μg/mL
[17] = iron preparation alone 0.43 μg/mL
[18] = iron preparation alone 1.71 μg/mL

ferrous gluconate
Cell Survival Rate [1, 15]: 97.68%
Cell Survival Rate [1, 16]: 100%
Cell Survival Rate [2, 17]: 100%
Cell Survival Rate [2, 18]: 100%
Cell Survival Rate [2, 15]: 100%
Cell Survival Rate [2, 16]: 97.86%
Cell Survival Rate [3, 17]: 100%
Cell Survival Rate [3, 18]: 100%
Cell Survival Rate [3, 15]: 100%
Cell Survival Rate [3, 16]: 100%
Cell Survival Rate [4, 17]: 100%
Cell Survival Rate [4, 18]: 100%
Cell Survival Rate [4, 15]: 100%
Cell Survival Rate [4, 16]: 97.31%
inhibition effect on growth of 9 types of tumors [5]: do not have an inhibition effect
Weight of Lymph Node [6]: 47.58 ± 20.34 mg
Weight of Lymph Node [7]: 40.16 ± 9.03 mg
Weight of Lymph Node [8]: 58.97 ± 19.63 mg
Weight of Lymph Node [9]: 32.14 ± 21.36 mg
Weight of Lymph Node [10]: 40.19 ± 20.69 mg
Weight of Lymph Node [11]: 52.14 ± 17.43 mg
Weight of Lymph Node [12]: 55.18 ± 20.12 mg
Weight of Lymph Node [13]: 33.57 ± 5.94 mg
inhibition effect on the metastatic lymph nodes [14]: do not have an inhibition effect
